Results reported in publication PMC10790229 (Journal of medicinal chemistry, 2023).

Experiments:
Format in all cases: cell-based
HIV-2 ROD = assay: Anti-HIV-2 activity in MT-4 cells; settings: HIV-2 ROD; for SI ROD (CC50/EC50): MT-4 cells; for EC50: read-out: EC50 ROD, 50% protection of MT-4 cells against HIV-induced cytotoxicity
MT-4 cells = assay: Cytotoxicity in uninfected MT-4 cells
HIV-1 IIIB = assay: Anti-HIV-1 activity in MT-4 cells; settings: MT-4 cells; for SI IIIB (CC50/EC50): HIV-1 IIIB

For “(S)-2-(4-((4-Aminophenyl)sulfonyl)-2-oxopiperazin-1-yl)-N-(1-(3-(4-methoxyphenyl)-4-oxo-3,4-dihydroquinazolin-2-yl)-2-phenylethyl)acetamide [12a1]”, the “SI ROD (CC50/EC50)” value (HIV-2 ROD) was over 1250.00, the EC50 (HIV-2 ROD) was 150 ± 40 nM and the CC50 (MT-4 cells) was over 187000 nM. The “SI IIIB (CC50/EC50)” value (HIV-1 IIIB) was over 290.70 and the “Ratio IIIB(EC50)/ROD(EC50)” value (HIV-1 IIIB) was 4.27.

In the case of “(S)-2-(4-((4-Aminophenyl)sulfonyl)-2-oxopiperazin-1-yl)-N-(1-(3-(4-methoxyphenyl)-7-(methylsulfonyl)-4-oxo-3,4-dihydroquinazolin-2-yl)-2-phenylethyl)acetamide [12e1]”, the “SI ROD (CC50/EC50)” value (HIV-2 ROD) is reported as over 480.77, the EC50 (HIV-2 ROD) is reported as 350 ± 30 nM and the CC50 (MT-4 cells) is reported as over 168000 nM. For the same substance, the “SI IIIB (CC50/EC50)” value (HIV-1 IIIB) was over 43.71 and the “Ratio IIIB(EC50)/ROD(EC50)” value (HIV-1 IIIB) was 10.97.

For “(S)-2-(4-((4-Aminophenyl)sulfonyl)-2-oxopiperazin-1-yl)-N-(1-(7-chloro-3-(4-methoxyphenyl)-4-oxo-3,4-dihydroquinazolin-2-yl)-2-phenylethyl)acetamide [12c1]”, the “SI ROD (CC50/EC50)” value (HIV-2 ROD) was over 1736.11, the EC50 (HIV-2 ROD) was 100 ± 20 nM and the CC50 (MT-4 cells) was over 178000 nM. For the same substance, the “SI IIIB (CC50/EC50)” value (HIV-1 IIIB) was over 290.70 and the “Ratio IIIB(EC50)/ROD(EC50)” value (HIV-1 IIIB) was 6.10.

For “(S)-2-(4-((4-Aminophenyl)sulfonyl)-2-oxopiperazin-1-yl)-N-(2-(3,5-difluorophenyl)-1-(3-(4-methoxyphenyl)-7-(methylsulfonyl)-4-oxo-3,4-dihydroquinazolin-2-yl)ethyl)acetamide [12e2]”, the “SI ROD (CC50/EC50)” value (HIV-2 ROD) was over 1041.67, the EC50 (HIV-2 ROD) was 150 ± 30 nM and the CC50 (MT-4 cells) was over 160000 nM. For the same substance, the “SI IIIB (CC50/EC50)” value (HIV-1 IIIB) was over 235.85 and the “Ratio IIIB(EC50)/ROD(EC50)” value (HIV-1 IIIB) was 4.53.

For “(S)-N-(1-(7-Chloro-3-(4-methoxyphenyl)-4-oxo-3,4-dihydroquinazolin-2-yl)-2-(3,5-difluorophenyl)ethyl)-2-(4-((4-nitrophenyl)sulfonyl)-2-oxopiperazin-1-yl)acetamide [11c2]”, the “SI ROD (CC50/EC50)” value (HIV-2 ROD) was over 403.23, the EC50 (HIV-2 ROD) was 400 ± 100 nM and the CC50 (MT-4 cells) was over 163000 nM. For the same substance, the “SI IIIB (CC50/EC50)” value (HIV-1 IIIB) was over 277.78 and the “Ratio IIIB(EC50)/ROD(EC50)” value (HIV-1 IIIB) was 1.48.

For “(S)-N-(1-(7-Fluoro-3-(4-methoxyphenyl)-4-oxo-3,4-dihydroquinazolin-2-yl)-2-phenylethyl)-2-(4-((4-nitrophenyl)sulfonyl)-2-oxopiperazin-1-yl)acetamide [11b1]”, the “SI ROD (CC50/EC50)” value (HIV-2 ROD) was over 312.50, the EC50 (HIV-2 ROD) was 560 ± 140 nM and the CC50 (MT-4 cells) was over 175000 nM. For the same substance, the “SI IIIB (CC50/EC50)” value (HIV-1 IIIB) was over 88.03 and the “Ratio IIIB(EC50)/ROD(EC50)” value (HIV-1 IIIB) was 3.55.

With “(S)-N-(2-(3,5-Difluorophenyl)-1-(7-fluoro-3-(4-methoxyphenyl)-4-oxo-3,4-dihydroquinazolin-2-yl)ethyl)-2-(4-((4-nitrophenyl)sulfonyl)-2-oxopiperazin-1-yl)acetamide [11b2]” the “SI ROD (CC50/EC50)” value (HIV-2 ROD) was over 480.77, the EC50 (HIV-2 ROD) was 350 ± 30 nM and the CC50 (MT-4 cells) was over 167000 nM. For the same substance, the “SI IIIB (CC50/EC50)” value (HIV-1 IIIB) was over 337.84 and the “Ratio IIIB(EC50)/ROD(EC50)” value (HIV-1 IIIB) was 1.40.
